Assay results from article PMC12749748, “Chemically-induced degradation of the endoplasmic-reticulum stress sensor IRE1 by a VHL-recruiting chimera” (Nature Communications, 2025).
“Also recorded” adds a separate entry of the source.

Columns and labels:
IRE1 [1] = target: T1, IRE1 (Homo sapiens, UniProt O75460); experiment: Immunoblot of endogenous IRE1 depletion in AMO1 cells; format: cell-based; parameters: Immunoblot (IB) analysis of endogenous IRE1 depletion in AMO1 cells; endogenous in cells; host or cells: AMO1
Protocol: (§1) Cells were lysed in buffer containing 20 mM HEPES 7.2, 150 mM NaCl, and 1% Triton X-100, supplemented with fresh protease and phosphatase inhibitors (Invitrogen, #78440), cleared by centrifugation at 12,000 × g for 10 min, and analyzed by BCA protein assay (Thermo Fisher Scientific, #23227). Equal protein amounts were loaded, separated by SDS-PAGE, electrotransferred to nitrocellulose membranes using the iBLOT2 system (Invitrogen), and blocked in 5% nonfat milk solution for 60 min. Membranes were probed with primary antibodies at 1:1000 dilution in 5% milk at 4 °C overnight. Signal was detected using appropriate horseradish peroxidase (HRP)-conjugated secondary antibodies at 1:10,000 in 5% milk at room temperature for 1–2 h. Bands were visualized by the Azure 600 western blot imaging system (Azure Biosystems). For in vitro ubiquitination assays performed with Me-Ub, bands were visualized by the Odyssey CLx Imager (LI‑COR) after incubating the blots with the IRDye 800CW (LI-COR) secondary antibodies at 1:10,000 in Intercept Blocking Buffer (LI-COR) at room temperature for 1–2 h.

IRE1 [2] = target: T1, IRE1; experiment: IP-IB of K48-linked ubiquitination of endogenous IRE1 in AMO1 cells; format: cell-based; parameters: Immunoblot (IB) analysis of endogenous IRE1 depletion in AMO1 cells; endogenous in cells; host or cells: AMO1; conditions: 3 µM, 2 h, compared to DMSO
Protocol: as §1
(§2) IRE1.LD antibodies were conjugated to agarose beads using the AminoLink® Plus Immobilization Kit (Thermo Fisher, #44894). […]

IRE1 [3] = test system: IRE1; parameters: method as in earlier work; conditions: VHL:G6374:IRE1; cited from earlier work
IRE1:VHL = IRE1:VHL (Homo sapiens, UniProt O75460+P40337); experiment: co-IP of endogenous VHL with endogenous IRE1 from AMO1 cells; format: cell-based; parameters: co-IP of endogenous VHL with endogenous IRE1 from AMO1 cells; endogenous in cells; host or cells: AMO1; conditions: titration of G6374
Protocol: as §1, §2

AMO1 cells = experiment: Incucyte cell confluency, AMO1 cells; format: cell-based; conditions: AMO1 shIRE1 cells, titration
Protocol: For non-adherent AMO1, KMS27, and OPM2 cells, cells were plated at 5000 cells/well in ultra-low attachment (ULA) 96-well plates (Costar, #7007) and centrifuged at 600 × g for 5 min for spheroid formation. For adherent U2OS and Colo201 cells, 2000 cells/well were seeded in a clear flat-bottom 96-well plate (Costar, #3595). Treatments were added at the time of cell seeding, and cells were cultured in complete RPMI media to a final volume of 200 µL/well. Cultures were maintained at 37 °C throughout the duration of the experiment. Cell confluency was tracked using the Incucyte live-cell imaging system (Sartorius S3). Picture frames were captured every 4 h with a 4× objective, and cell confluency (%) from the total well area as a function of time was calculated using the Incucyte software (version 2023 A Rev2).

[4] = AMO1 cells, 17 h, immunoblot quantification, n = 4, mean ± SEM

T1 sequence (O75460 19-977): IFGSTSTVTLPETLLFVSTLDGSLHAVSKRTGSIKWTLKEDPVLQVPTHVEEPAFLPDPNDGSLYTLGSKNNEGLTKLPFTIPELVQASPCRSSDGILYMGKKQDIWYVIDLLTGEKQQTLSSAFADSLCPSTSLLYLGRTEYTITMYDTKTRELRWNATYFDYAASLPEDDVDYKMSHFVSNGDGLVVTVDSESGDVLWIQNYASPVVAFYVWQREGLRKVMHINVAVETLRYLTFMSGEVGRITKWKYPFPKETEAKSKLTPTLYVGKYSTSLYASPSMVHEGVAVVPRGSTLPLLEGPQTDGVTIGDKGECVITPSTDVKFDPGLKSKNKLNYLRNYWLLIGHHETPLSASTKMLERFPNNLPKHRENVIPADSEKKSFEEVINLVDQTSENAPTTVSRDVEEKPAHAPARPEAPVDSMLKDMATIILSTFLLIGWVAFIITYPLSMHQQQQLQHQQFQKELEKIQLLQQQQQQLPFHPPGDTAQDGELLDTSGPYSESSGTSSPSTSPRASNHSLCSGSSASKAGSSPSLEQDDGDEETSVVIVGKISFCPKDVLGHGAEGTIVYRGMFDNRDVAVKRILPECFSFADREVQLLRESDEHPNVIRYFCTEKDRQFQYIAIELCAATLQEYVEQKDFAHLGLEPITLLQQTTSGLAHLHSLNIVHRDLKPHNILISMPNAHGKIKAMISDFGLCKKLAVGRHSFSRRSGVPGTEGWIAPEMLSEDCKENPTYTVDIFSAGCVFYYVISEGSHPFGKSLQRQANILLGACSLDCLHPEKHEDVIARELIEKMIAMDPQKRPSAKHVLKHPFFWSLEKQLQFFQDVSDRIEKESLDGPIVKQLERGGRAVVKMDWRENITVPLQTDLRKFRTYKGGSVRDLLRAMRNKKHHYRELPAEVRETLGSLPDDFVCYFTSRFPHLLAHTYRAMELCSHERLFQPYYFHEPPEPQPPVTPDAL
IRE1:VHL, sequence (O75460 19-977): as above
IRE1:VHL, sequence (P40337 whole entry): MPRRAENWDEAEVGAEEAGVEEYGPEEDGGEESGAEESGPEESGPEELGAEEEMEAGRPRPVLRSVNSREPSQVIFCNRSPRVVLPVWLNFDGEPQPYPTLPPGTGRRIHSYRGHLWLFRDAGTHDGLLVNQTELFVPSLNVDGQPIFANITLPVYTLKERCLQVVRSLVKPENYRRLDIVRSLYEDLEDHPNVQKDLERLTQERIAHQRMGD
IRE1:VHL, sequence (Q15369 whole entry partner): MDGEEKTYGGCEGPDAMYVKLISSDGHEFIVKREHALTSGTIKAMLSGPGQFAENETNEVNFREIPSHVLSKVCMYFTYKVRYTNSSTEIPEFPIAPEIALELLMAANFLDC
IRE1:VHL, sequence (Q15370 whole entry partner): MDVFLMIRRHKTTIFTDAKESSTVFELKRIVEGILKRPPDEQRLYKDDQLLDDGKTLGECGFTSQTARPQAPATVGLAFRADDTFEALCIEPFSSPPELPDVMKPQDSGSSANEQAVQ
IRE1:VHL, sequence (Q13617 whole entry partner): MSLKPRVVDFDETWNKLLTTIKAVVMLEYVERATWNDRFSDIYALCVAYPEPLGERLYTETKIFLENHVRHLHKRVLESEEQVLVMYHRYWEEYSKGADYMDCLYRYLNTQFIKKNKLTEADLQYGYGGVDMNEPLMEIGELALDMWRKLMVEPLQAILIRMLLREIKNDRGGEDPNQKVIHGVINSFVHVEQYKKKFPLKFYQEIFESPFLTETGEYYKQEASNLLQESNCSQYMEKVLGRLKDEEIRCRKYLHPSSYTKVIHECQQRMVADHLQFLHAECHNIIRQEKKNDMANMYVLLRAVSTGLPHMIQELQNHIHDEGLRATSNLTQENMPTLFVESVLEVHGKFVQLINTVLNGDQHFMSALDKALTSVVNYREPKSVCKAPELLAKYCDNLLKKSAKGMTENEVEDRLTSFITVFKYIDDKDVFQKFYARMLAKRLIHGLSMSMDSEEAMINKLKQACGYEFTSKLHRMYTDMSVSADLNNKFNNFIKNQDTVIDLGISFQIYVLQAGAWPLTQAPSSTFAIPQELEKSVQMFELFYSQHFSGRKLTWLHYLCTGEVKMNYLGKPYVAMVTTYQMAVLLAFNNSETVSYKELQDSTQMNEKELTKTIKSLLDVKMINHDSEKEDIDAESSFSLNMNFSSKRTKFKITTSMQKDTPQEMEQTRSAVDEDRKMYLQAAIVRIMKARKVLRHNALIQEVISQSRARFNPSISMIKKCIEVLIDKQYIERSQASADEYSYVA
IRE1:VHL, sequence (P62877 whole entry partner): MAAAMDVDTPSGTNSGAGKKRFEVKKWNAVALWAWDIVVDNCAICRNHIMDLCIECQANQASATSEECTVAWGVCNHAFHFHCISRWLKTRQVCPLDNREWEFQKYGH

In the case of Cc1ncsc1-c1ccc(CNC(=O)[C@@H]2C[C@@H](O)CN2C(=O)[C@@H](NC(=O)CCCCN2CCN([C@H]3CC[C@H](Nc4ncc5ccc(=O)n(C(C)C)c5n4)CC3)CC2)C(C)(C)C)cc1 [G6374], the “IRE1 depletion under ER stress (thapsigargin or tunicamycin)” value (IRE1 [1]; AMO1 and KMS27 cells, G6374 3 µM, 2 hr, Tg 100 nM or Tm 5 µg/ml, 6 hr) is reported as “did not encumber G6374-driven IRE1 depletion”, the “IRE1 depletion over a time course” value (IRE1 [1]; AMO1 cells, 1 µM, 0-8 h) is reported as “reaches near maximum levels by 4 hr; also recorded: near complete IRE1 depletion by 4 h” and the DC50 (IRE1 [1]; [4]) is reported as 40 nM. For the same compound, the Dmax (IRE1 [1]; [4]) was 93%, the “K48-linked ubiquitination of endogenous IRE1” value (IRE1 [2]) was “significant increase in K48-linked ubiquitination of endogenous IRE1” and the Dmax (IRE1 [3]) was 95%. The “induced IRE1:VHL interaction (co-IP)” value (IRE1:VHL) was “induced a much stronger interaction between the two proteins” and the “growth inhibition (cell confluency)” value (AMO1 cells) was “concentration-dependent growth inhibition”.
